Measurements as given in ChEMBL document CHEMBL1150113, “Ulongamides A-F, new beta-amino acid-containing cyclodepsipeptides from Palauan collections of the marine cyanobacterium Lyngbya sp” (J Nat Prod, 2002).
Activity calls are given as the source filed them. No cut-off for these calls is given here.

How the values were obtained:
Type in all cases: functional, cell-based
LoVo [1] = experiment: Cytotoxicity against human LoVo cells at < 10 uM
KB [2] = experiment: Cytotoxicity against human KB cells at < 10 uM
KB [3] = experiment: Cytotoxicity against human KB cells
LoVo [4] = experiment: Cytotoxicity against human LoVo cells

SMILES: CCC[C@H]1NC(=O)c2csc(n2)[C@H](C)NC(=O)[C@H](C(C)C)N(C)C(=O)[C@H](C(C)C)NC(=O)[C@H]([C@@H](C)CC)OC(=O)[C@H]1C
- Activity (LoVo [1]): inactive
- Activity (KB [2]): inactive

SMILES: CCC[C@H]1NC(=O)c2csc(n2)[C@H](C)NC(=O)[C@H](C(C)C)N(C)C(=O)[C@H](Cc2ccccc2)N(C)C(=O)[C@H](C)OC(=O)[C@@H]1C [ULONGAMIDE A]
- IC50 (KB [3]): 1 µM
- IC50 (LoVo [4]): 5 µM

SMILES: CCC[C@H]1NC(=O)c2csc(n2)[C@H](C)NC(=O)[C@H](C(C)C)N(C)C(=O)[C@H](Cc2ccc(O)cc2)N(C)C(=O)[C@H](C)OC(=O)[C@@H]1C [ULONGAMIDE B]
- IC50 (KB [3]): 1 µM
- IC50 (LoVo [4]): 5 µM

SMILES: CCC[C@H]1NC(=O)c2csc(n2)[C@H](C)NC(=O)[C@H](Cc2ccccc2)N(C)C(=O)[C@H](Cc2ccc(O)cc2)N(C)C(=O)[C@H](C)OC(=O)[C@@H]1C [ULONGAMIDE C]
- IC50 (KB [3]): 1 µM
- IC50 (LoVo [4]): 5 µM

SMILES: CCC[C@H]1NC(=O)c2csc(n2)[C@H](C)NC(=O)[C@H](C(C)C)N(C)C(=O)[C@H](Cc2ccc(O)cc2)N(C)C(=O)[C@H](C(C)C)OC(=O)[C@H]1C [ULONGAMIDE D]
- IC50 (KB [3]): 1 µM
- IC50 (LoVo [4]): 5 µM

SMILES: CCC[C@H]1NC(=O)c2csc(n2)[C@H](C)NC(=O)[C@H](C(C)C)N(C)C(=O)[C@H](Cc2ccc(O)cc2)N(C)C(=O)[C@H]([C@H](C)CC)OC(=O)[C@H]1C [ULONGAMIDE E]
- IC50 (KB [3]): 1 µM
- IC50 (LoVo [4]): 5 µM
